In patent US20250346943A1, “DEGRADER COMPOUNDS OF QSOX1 mRNA” (UNIVERSITY OF FLORIDA RESEARCH FOUNDATION, INCORPORATED, priority 2022, published 2025):

Columns and labels:
[1] = test system: wild type (WT) QSOX1 5′ UTR RNA hairpin; assay: In vitro Chem-CLIP and competitive Chem-CLIP with Cy5-labeled WT RNA; type: binding, human; settings: constant concentration of F1, increasing competitor
Experimental: In Vitro Chemical-Crosslinking and Isolation by Pull-down (Chem-CLIP) with Fluorescently Labeled RNA. Cy5-labeled RNA (100 μL, 2 μM) was folded by heating at 95° C. for 2 min in 1× Folding Buffer and cooled on ice. The RNA was then mixed with F1 at the indicated concentrations. The sample was irradiated with UV light (365 nm) for 15 min and then added to 100 μL of azide-disulfide agarose beads (Click Chemistry Tools, 1238-2) pre-washed with 200 μL of 25 mM HEPES, pH 7.0. A click reaction solution was prepared by mixing 30 μL of 250 mM sodium ascorbate, 30 μL of 10 mM CuSO4, and 30 μL of 50 mM THPTA, which was added to the sample. The sample was incubated while rotating at 37° C. for 2 h, briefly centrifuged, and then the supernatant was decanted. The beads were washed six times with 1× Washing Buffer (10 mM Tris-HCl, pH 7, 4 M NaCl, 1 mM EDTA, and 0.05% (v/v) Tween-20) following by incubation with 1× Releasing Buffer (50 mM TCEP and 100 mM K2CO3) at 37° C. for 30 min. An equivalent of iodoacetamide (200 mM) was added to the sample, which was incubated at 37° C. for an additional 30 min. The sample was briefly centrifuged and supernatant containing RNA was carefully transferred to a clean tube. Cy-5 fluorescence in the supernatant was measured with a Molecular Devices SpectraMax M5 plate reader with an excitation wavelength of 640 nm and an emission wavelength of 680 nm. For competitive Chem-CLIP, F1-RIBOTAC was added to the folded the RNA and incubated at room temperature for 15 min prior to the addition of F1. Pull-down was then completed as described above.

[2] = target: QSOX1 5′UTR hairpin (model of the QSOX1-a binding site); assay: In vitro binding by fluorescence polarization, Cy5-labeled WT RNA; parameters: species or system human
Experimental: In Vitro Binding by Measuring Changes in Fluorescence Polarization. Cy5-labeled RNA was folded by heating at 95° C. for 2 min in 1× Folding Buffer and cooled on ice. Serial dilutions of F1 (200 to 0.4 μM, 1:1 dilutions) were prepared in 1× Folding Buffer with 4% (w/v) bovine serum albumin (BSA) with constant DMSO concentration (2% v/v). The compound solutions (10 μL) were added to a well of non-binding 384-well plate (Corning). An equal volume of folded RNA was adding to each well with a final concentration of 50 nM. The samples were incubated at room temperature for 30 min, and then fluorescence polarization was measured with a Molecular Devices SpectraMax M5 plate reader with an excitation wavelength of 640 nm and an emission wavelength of 680 nm.

[3] = test system: MDA-MB-231 cells; assay: Proliferation assay; type: cell-based, human; settings: 48 h treatment
Experimental: Proliferation Assay. MDA-MB-231 cells were seeded in 96-well plates (Corning) at ˜40% confluency and treated with compound or transfected with ASO as described in Cell Culture. Compound was replenished every 16 h by replacing all the growth medium with freshly prepared medium containing same concentration of compounds. After 48 h total treatment period, proliferation was measured by using CellTiter 96 AQueous One Solution Cell Proliferation Assay (Cat #G3582, Promega) per manufacturer's protocol.

[4] = test system: mutant RNA (U-bulge mutated to U/A base pair); assay: Optical melting, mutant model RNA; type: binding
Experimental: (§1) Optical Melting Experiments. The thermal stability of WT and mutant model RNAs in the presence and absence of F1-Amide was measured by optical melting. The RNA ([…]) was prepared in 1× Melting Buffer (8 mM Na2HPO4, pH 7, 10 mM NaCl, and 1 mM EDTA) and heated to 95° C. followed by cooling on ice. F1-Amide was added to the final concentration of 2 mM; an equal volume of DMSO was added to the vehicle sample. The absorbance of the solution at 260 nm was measured by a Beckman Coulter DU800 spectrophotometer as a function of temperature, from 12° C. to 85° C. at a rate of 1° C./min. The background absorbance of buffer with DMSO or compound was subtracted before fitting the curve with MeltWin (v3.5)^7 to determine the melting temperature (Tm) and the Gibbs free energy (ΔG37° C.).

[5] = test system: MDA-MB-231 cells; assay: Invasion assay; type: cell-based, human; settings: 48 h
Experimental: Invasion Assay. MDA-MB-231 cells were seeded in […] and treated with compound or transfected by ASO for 48 h as described in Cell Culture. After treatment for 48 h, the medium was replaced with fresh medium that contains same concentration of compound but lacking FBS for 8 h (serum starvation). ThinCert (GBO) 24-well inserts with 8 μm pores were coated with 100 μL of 0.5 mg/mL Matrigel (Fisher Scientific: CB40234) per well, and then cells were added into the insert (50,000 cells per well). Fresh growth medium with FBS was added to a 24-well plate (600 μL each well), and the inserts containing cells were placed on the top, allowing medium to cover the bottom of the insert. After 16 h, all medium was removed, and cells were washed by 1×DPBS twice. Cells were then fixed with 3% (w/v) paraformaldehyde (PFA) in 1×DPBS at room temperature for 30 min, followed by staining with Crystal Violet (10 mg/mL; 4:1H2O:MeOH) at room temperature for 20 min. A cotton swab was used to gently remove non-invasive cells on sitting on top of the Matrigel. The inserts were then imaged under a regular optical microscope (3 views per well), and the number of invasive cells were counted manually.

[6] = test system: WT model of the QSOX1-a hairpin structure; assay: Optical melting, WT model RNA; type: binding, human
Experimental: as §1

[7] = test system: QSOX1-a protein; assay: QSOX1-a protein abundance by Western blotting in MDA-MB-231 cells; type: cell-based, human; settings: 20 μM
Experimental: (§2) Measuring Protein Abundance by Western Blotting. MDA-MB-231 cells were seeded in 6-well plates at ˜50% confluency and treated with vehicle (DMSO) or compound as described above but without EU treatment. After 16 h, the compound-containing growth medium was removed and replaced with fresh medium containing compound (re-dosing). After an additional 32 h incubation, total protein was harvested (48 h total treatment time). The cells were then washed twice with cold 1×DPBS, and total protein was harvested by using Mammalian Protein Extraction Reagent (M-PER, Thermo Scientific) per the manufacturer's protocol. Protein concentration was quantified by using BCA Protein Assay Kit (Pierce), and the proteins were separated by using 10% SDS-polyacrylamide gel (20 μg protein per lane). After gel electrophoresis in 1× Running Buffer (50 mM MOPS, 50 mM Tris-base, pH 7.5, 1 mM EDTA, and 0.1% (w/v) SDS) at 120 V for 1 h, the proteins were transferred to a PVDF membrane (0.45 μm, Cytiva) at 300 mA for 1 h in 1× Transfer Buffer (25 mM Bicine, 25 mM Tris-base, pH 7.5, 1:4 MeOH:H2O). The membrane was blocked with 5% (w/v) non-fat dry milk in TBST (1×TBS containing 0.1% (v/v) Tween-20) for 1 h at room temperature. The primary antibody for QSOX1 protein (Cat #10092-932, Proteintech) or SQSTM1 protein (Cat #ab 109012, Abcam) was incubated with 1:1000 dilutions at 4° C. for 16 h. The membrane was then washed by TBST four times (5 min each) and then incubated with the secondary antibody (Cat #7074S, Cell Signaling) with 1:5000 dilution at room temperature for 2 h. The membrane was washed with TBST four times (5 min each) and imaged by using a SuperSignal West Pico Chemiluminescent Substrate (Pierce) per manufacturer's protocol. The blot was stripped by washing the membrane in 1× Stripping Buffer (200 mM glycine, pH 2.2, 4 mM SDS, 1% (v/v) Tween 20) at room temperature for 30 min, followed by blocking again as described above. […] Expression levels of proteins were quantified based on band intensity by using ImageJ. […]

[8] = test system: SQSTM1 protein; assay: SQSTM1 protein abundance by Western blotting in MDA-MB-231 cells; type: cell-based, human; settings: F1-Amide 20 μM, F1-RIBOTAC 10 μM, 48 h
Experimental: as §2, with “temperature.” for “temperature. The primary antibody for QSOX1 protein (Cat #10092-932, Proteintech) or SQSTM1 protein (Cat #ab 109012, Abcam) was incubated with 1:1000 dilutions at 4° C. for 16 h. The membrane was then washed by TBST four times (5 min each) and then incubated with the secondary antibody (Cat #7074S, Cell Signaling) with 1:5000 dilution at room temperature for 2 h. The membrane was washed with TBST four times (5 min each) and imaged by using a SuperSignal West Pico Chemiluminescent Substrate (Pierce) per manufacturer's protocol. The blot was stripped by washing the membrane in 1× Stripping Buffer (200 mM glycine, pH 2.2, 4 mM SDS, 1% (v/v) Tween 20) at room temperature for 30 min, followed by blocking again as described above.”

[9] = target: T1, RNase L (Homo sapiens, UniProt Q05823); settings: versus the RNase L recruiting module of F1-RIBOTAC; cited from earlier work
T1 sequence (Q05823 1-741): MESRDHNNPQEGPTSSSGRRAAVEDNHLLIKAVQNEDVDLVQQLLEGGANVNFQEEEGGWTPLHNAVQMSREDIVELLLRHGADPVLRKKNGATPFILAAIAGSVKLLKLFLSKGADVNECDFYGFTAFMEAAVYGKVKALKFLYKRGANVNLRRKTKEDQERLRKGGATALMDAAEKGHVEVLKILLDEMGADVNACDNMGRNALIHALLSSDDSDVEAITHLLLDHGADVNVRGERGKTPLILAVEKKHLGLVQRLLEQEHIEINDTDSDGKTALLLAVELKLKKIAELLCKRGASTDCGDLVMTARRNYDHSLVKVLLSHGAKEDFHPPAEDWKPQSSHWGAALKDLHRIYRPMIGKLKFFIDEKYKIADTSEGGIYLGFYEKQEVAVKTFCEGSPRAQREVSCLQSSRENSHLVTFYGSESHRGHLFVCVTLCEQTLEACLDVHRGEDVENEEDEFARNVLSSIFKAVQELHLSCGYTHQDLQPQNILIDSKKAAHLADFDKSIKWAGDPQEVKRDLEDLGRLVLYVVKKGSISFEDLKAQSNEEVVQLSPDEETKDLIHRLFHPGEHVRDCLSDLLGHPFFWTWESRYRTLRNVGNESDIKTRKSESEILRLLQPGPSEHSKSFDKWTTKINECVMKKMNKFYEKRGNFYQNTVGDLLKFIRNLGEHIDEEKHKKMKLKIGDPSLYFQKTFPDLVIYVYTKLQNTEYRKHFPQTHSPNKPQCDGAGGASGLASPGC

[10] = upon addition of small molecule

Structure (SMILES)	competition of F1 cross-linking to the QSOX1-a target site (competitive Chem-CLIP) [1]	Kd [2] [µM]	effect on proliferation of MDA-MB-231 cells [3]	effect on Tm or ΔG37° C. of mutant RNA [4]	effect on invasion [5]	Tm of WT model RNA upon addition of compound ([6]; RNA alone 51.8) [°C]	ΔG37° C. of WT model RNA upon addition of compound ([6]; RNA alone −2.7) [kcal/mol]	decrease of DG°37 [6, 10] [kcal/mol]	increase of melting temperature (Tm) [6, 10] [°C]	reduction of QSOX1-a protein [7] [%]	effect on SQSTM1 protein levels [8]	reduction of RNase L recruiting activity [9] [fold]
CCCNC(=O)CCC(=O)N(C)[C@H]1CC[C@@H](c2ccc(Cl)c(Cl)c2)c2ccccc21 [Compound F1-Amide]	dose-dependently competed off	26 ± 9	dose-dependently reduced proliferation	No significant effect	no significant effect	53.7	-3.0	0.3	1.9	~15	Neither	
CCOC(=O)C1=C(Nc2ccccc2)S/C(=C\c2ccc(O)c(OCCOCCOCCOCCNC(=O)CCC(=O)N(C)[C@H]3CC[C@@H](c4ccc(Cl)c(Cl)c4)c4ccccc43)c2)C1=O [Compound F1-CTRL]		10 ± 3			no significant effect					~15		> 20
